We go through 19 compounds from article PMC4890880 (ACS infectious diseases, 2016).

In experiment [1] the test system is Plasmodium berghei (Pb-Luc) exoerythrocytic-stage parasites. The experiment in a line: microbe, parasite or virus in culture.
The test system of experiment [2] is HepG2-A16-CD81EGFP cells. The experiment in a line: cells. The settings on record: Homo sapiens, HepG2, read-out: % inhibition.
[3] abbreviates: read-out: Inhibition% @ 50 uM rep1.
Setting [4] is: read-out: Inhibition% @ 50 uM rep2.

Each structure is given as a SMILES string. Read-outs that look alike come from different tables or passages of the source.

What is called inhibition is the drop in the measured response relative to a control, in per cent. Regarding `Cn1c(C(=O)c2cccc3ccccc23)nc2ccccc21` [MMV665824], the inhibition at 50 µM came to 96% in experiment [1] (setting [3]), 98% in experiment [1] (setting [4]) and 35.6% in experiment [2].

In the case of `COc1ccc(C=C2SC(Nc3ccccc3)=NC2=O)cc1` [MMV665836], the inhibition at 50 µM in experiment [1] (setting [3]) was found to be 103%; in experiment [1] (setting [4]) it was 103%; in experiment [2], 83.2%.

Turning to `CCOc1c(Cl)cc(CNC(C)C(O)c2ccccc2)cc1OC` (stereo not drawn) [MMV665857], the inhibition at 50 µM came out at 102% in experiment [1] (setting [3]), 103% in experiment [1] (setting [4]) and 98.7% in experiment [2].

Regarding `Cn1c(=O)n(C)c2cc(CNCCNc3ccnc4cc(Cl)ccc34)ccc21` [MMV665875], the inhibition at 50 µM in experiment [1] (setting [3]) amounted to 92%; in experiment [1] (setting [4]), 92%; in experiment [2] it was 45.3%.

`COc1ccc(CNC(=O)c2cc3c(=O)n4ccccc4nc3n(CCc3ccccc3)c2=N)cc1` [MMV665881]: the inhibition at 50 µM in experiment [1] (setting [3]) turned out to be 68%; in experiment [1] (setting [4]) it was 76%; in experiment [2], 1.19%.

Consider `COc1cc(C(=O)Nc2ccc(-c3nc4ccccc4[nH]3)cc2)cc(OC)c1OC` [MMV665898], for which the inhibition at 50 µM in experiment [1] (setting [3]) came to 99%; in experiment [1] (setting [4]) it was 101%; in experiment [2] it was 69.9%.

Consider `COc1ccc(C(=O)C2CC2c2ccc(Cl)cc2)cc1` (stereo not drawn) [MMV665924], for which the inhibition at 50 µM was found to be 79% in experiment [1] (setting [3]), 83% in experiment [1] (setting [4]) and 38.1% in experiment [2].

In the case of `O=C(CCl)NCCOc1ccc(Cl)cc1Cl` [MMV665927], the inhibition at 50 µM in experiment [1] (setting [3]) came to 100%; in experiment [1] (setting [4]), 99%; in experiment [2], 91.7%.

With `COc1ccc(CN2CCN(Cc3ccccc3)CC2)c(O)c1` [MMV665944], the inhibition at 50 µM in experiment [1] (setting [3]) turned out to be 69%; in experiment [1] (setting [4]), 72%; in experiment [2], 85.9%.

Turning to `Oc1ccc(C(=C(Cl)Cl)c2ccc(O)cc2)cc1` [MMV665949], the inhibition at 50 µM in experiment [1] (setting [3]) was 98%; in experiment [1] (setting [4]), 99%; in experiment [2], 87.2%.

Turning to `O=C(Cc1ccccc1)NC(c1ccc(Cl)cc1)c1c(O)ccc2ccccc12` (stereo not drawn) [MMV665972], the inhibition at 50 µM was determined as 101% in experiment [1] (setting [3]), 101% in experiment [1] (setting [4]) and 97.4% in experiment [2].

Consider `OC1CCCCC1C1(NC(=S)Nc2ccccc2)CCCCC1` (stereo not drawn) [MMV665980], for which the inhibition at 50 µM stood at 104% in experiment [1] (setting [3]), 104% in experiment [1] (setting [4]) and 82.2% in experiment [2].

Regarding `CCCCCCc1cc(O)c2c3c(c(=O)oc2c1)CCC(C)C3` (stereo not drawn) [MMV665987], the figures for the inhibition at 50 µM in experiment [1] (setting [3]), in experiment [1] (setting [4]) and in experiment [2] were 103%, 104% and 95.8%, respectively.

Regarding `Cc1nc2ccccc2c(O)c1CC=C(Cl)Cl` [MMV665994], the inhibition at 50 µM amounted to 100% in experiment [1] (setting [3]), 102% in experiment [1] (setting [4]) and 31.7% in experiment [2].

As for `COc1ccc(C(=O)NC(c2ccccc2Cl)c2cc(Cl)c3cccnc3c2O)cc1` (stereo not drawn) [MMV666022], the results for the inhibition at 50 µM in experiment [1] (setting [3]), in experiment [1] (setting [4]) and in experiment [2] were 103%, 104% and 99.5%, respectively.

Turning to `OC(Cn1nnc2ccccc21)Cn1c2ccc(Br)cc2c2cc(Br)ccc21` (stereo not drawn) [MMV666025], the inhibition at 50 µM in experiment [1] (setting [3]) was determined as 99%; in experiment [1] (setting [4]), 97%; in experiment [2] it was 43.6%.

For the compound `COc1ccc(CN2CCCC(C(=O)c3ccc(C(F)(F)F)cc3)C2)c(O)c1` (stereo not drawn) [MMV666060], the inhibition at 50 µM in experiment [1] (setting [3]) worked out at 104%; in experiment [1] (setting [4]), 104%; in experiment [2], 94.3%.

In the case of `O=C(NC1CCCCC1)C(c1cccs1)N(CCc1ccccc1)C(=O)c1ccco1` (stereo not drawn) [MMV666106], the inhibition at 50 µM stood at 102% in experiment [1] (setting [3]), 103% in experiment [1] (setting [4]) and 76.6% in experiment [2].

In the case of `CCOC(=O)C1(Cc2ccccc2)CCN(Cc2cccc(OC)c2O)CC1` [MMV666109], the inhibition at 50 µM in experiment [1] (setting [3]) came to 99%; in experiment [1] (setting [4]), 100%; in experiment [2], 79%.
